The values below come from patent US20240327372A1, “PREPARATION OF PHENE[…] […] STEREOISOMERS THEREOF AND PRECURSORS THEREOF” (priority 2022, published 2024).

For orientation: IC50 means the point on the concentration scale where inhibition reaches its midpoint. The low end stands for higher potency, the high end for lower potency. A word on the Ki: it is the equilibrium dissociation constant of an inhibitor or competing ligand from its target.

One assay deals with hKir2.1 (Homo sapiens (Human), UniProt P63252). The class given is cell-based. The following applies: Kir2.1, Antagonist mode, test compound. The protocol: Electrophysiological assays were conducted to profile three compounds ((R)-methylone, (S)-methylone, or racemic methylone) for activities on the ion channel targets specified below using the Qube electrophysiological platform. Where presented, IC50 values were determined by a non-linear, least squares regression analysis. Reference standards were run as an integral part of each assay to ensure the validity of the results obtained.
Sequence of hKir2.1 (P63252 whole entry): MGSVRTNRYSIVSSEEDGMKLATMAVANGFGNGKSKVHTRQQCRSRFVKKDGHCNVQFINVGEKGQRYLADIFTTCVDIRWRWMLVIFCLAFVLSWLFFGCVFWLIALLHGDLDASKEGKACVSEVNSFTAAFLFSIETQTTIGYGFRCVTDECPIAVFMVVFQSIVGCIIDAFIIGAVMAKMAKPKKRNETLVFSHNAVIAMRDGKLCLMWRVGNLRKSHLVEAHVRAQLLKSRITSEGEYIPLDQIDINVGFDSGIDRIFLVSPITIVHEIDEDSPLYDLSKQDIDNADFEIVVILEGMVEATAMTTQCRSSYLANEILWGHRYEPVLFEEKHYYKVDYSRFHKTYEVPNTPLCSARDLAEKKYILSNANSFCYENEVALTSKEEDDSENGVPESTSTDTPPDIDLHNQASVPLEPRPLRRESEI
Ion Channels tested were Eurofins Panel Part Number: CPROFullQB2DR Voltage-Gated Sodium: HEK-Nav1.5 (Peak), HEK-Nav1.5 (Late, Antagonist) Voltage-Gated Potassium: HEK-Kv4.3/KChIP2, CHO-hERG, CHO-KCNQ1/minK Voltage-Gated Calcium: HEK-Cav1.2 Inward-Rectifying Voltage-Gated Potassium: HEK-Kir2.1.
hKir2.1 Potassium Channel Assay—Qube APC After whole cell configuration is achieved, the cells are held at −30 mV. Kir2.1 currents are evoked by a single 500 ms pulse to −120 mV before returning to the holding potential of −30 mV. This paradigm is delivered once every 20 s to monitor the current amplitude.

Assay [1] addresses norepinephrine transporter (NET). Kind of assay: Competition radioligand binding, [3H]Nisoxetine, rat brain membranes. The following applies: for IC50 / Ki: NE transporter; for Ki: Cheng-Prusoff. The source says: (§1) Rat brain (Sprague Dawley, 200-250 g) synaptosomes were isolated from midbrain and hindbrain for serotonin transporter assays, striatum for dopamine transporter assays, and hippocampus plus overlying occipital cortex for norepinephrine transporter assays. Radioligands used were: [^3H]Citalopram 81.4 Ci/mmol (PerkinElmer NET1039250UC; Lot No. 2960876). [^3H]WIN35428 82.8 Ci/mmol (PerkinElmer NET1033250UC; Lot No. 2891473). [^3H]Nisoxetine 79.2 Ci/mmol (PerkinElmer NET1084250UC; Lot No. 2970324). Non-specific compounds used were: Citalopram (Tocris Bioscience 1427). JHW007 (Tocris Bioscience 4351). Nomifensine (Abcam ab146004). Test Compounds for the study were: racemic methylone HCl; (R)-methylone HCl; (S)-methylone HCl.
(§2) For membrane preparations, rat brains were dissected, tissue was added to ice-cold lysis buffer (50 mM Tris HCl; 5 mM MgCl2; 5 mM EDTA; protease inhibitor cocktail) and homogenized. The homogenate was centrifuged at 100×g for 2 minutes and the supernatant divided into polypropylene Eppendorf tubes. The supernatants were centrifuged at 17,000×g for 10 minutes at 4° C. to re-pellet the cell lysate. The pellet was resuspended in fresh wash buffer (50 mM Tris-HCl; 5 mM MgCl2; 5 mM EDTA) and centrifuged a third time at 17,000×g for 10 minutes at 4° C. The pellet was resuspended in wash buffer containing 10% sucrose as a cryoprotectant, divided into aliquots (0.3 mL) and stored at −80° C. A sample of the homogenate was analyzed for protein content using the MERCK® BCA assay. On the day of the assay, the membrane preparation was thawed and the pellet resuspended in final assay buffer.
(§3) Competition binding assays were carried out in 96-well polypropylene plates in a final volume of 250 μL per well. To each well was added 150 μL membranes, 50 μL of test compound, non-specific compound or buffer, and 50 μL radioligand solution in buffer. The plate was incubated at 30° C. for 90 minutes with gentle agitation. The incubation was stopped by vacuum filtration onto presoaked (wash buffer with PEI) GF/C filters using a 96-well FILTERMATE™ harvester, followed by 5 washes with ice-cold wash buffer. Filters were then dried under a warm air stream, sealed in polyethylene, scintillation cocktail added, and the radioactivity counted in a WALLAC® TriLux 1450 MicroBeta counter. For each concentration of drug, non-specific binding was subtracted from total binding to give specific binding. Data was fitted using the non-linear curve fitting routines in PRISM® (Graphpad Software Inc) to determine IC50. Ki was subsequently calculated using the ChengPrusoff equation.

The target in a further assay is DAT (Rattus norvegicus (Rat), UniProt P23977). The assay can be described thus: [3H]Dopamine uptake inhibition in rat brain synaptosomes. The format is biochemical. The following applies: DA. The protocol:
(§4) Materials used were: Neurotransmitters [3H]5-HT (PerkinElmer, NET498001MC) [^3H]Dopamine (PerkinElmer, NET673250UC) [^3H]Norepinephrine (PerkinElmer, NET377250UC); Test Compounds Racemic methylone HCl (Merck, M-140); (R)-methylone HCl (Pisgah Labs); (S)-methylone HCl (Pisgah Labs); Reference Compounds Citalopram (Tocris Bioscience 1427). JHW007 (Tocris Bioscience 4351). Nomifensine (Abcam ab146004).
(§5) Synaptosomes were prepared from Sprague Dawley (200-250 g) rat brain regions (hippocampus for NE, striatum for DA and midbrain for 5-HT) using standard protocols. Tissues were dissected, added to sucrose buffer (0.32 M), homogenized with a dounce-homogenizer and centrifuged at 100×g to remove cells and debris. Supernatant was collected and centrifuged 17,000×g for 10 minutes at 4° C. to pellet the synaptosomes. The pellet was resuspended in fresh assay buffer.
(§6) Uptake assays were carried out in 96-well plates in a final volume of 250 μL per well. To each well was added 150 μL synaptosomes, 50 μL test, non-specific compound or buffer alone. The plate was incubated at 30° C. for 30 minutes with gentle agitation. 50 μL radiolabeled neurotransmitter in buffer was then added to each well to initiate the uptake. The plate was incubated at 30° C. for a further 5 minutes with gentle agitation. The incubation was stopped by vacuum filtration onto presoaked GF/C filters using a 96-well FilterMate™ harvester, followed by 3 washes with ice-cold wash buffer. Filters were then dried under a warm air stream, sealed in polyethylene, scintillation cocktail added, and the radioactivity counted in a Wallac® TriLux 1450 MicroBeta counter.
(§7) For each concentration of drug, non-specific uptake was subtracted from total uptake to give specific uptake. Data was fitted using the non-linear curve fitting routines in Prism® (Graphpad Software Inc) to determine IC50.

Assay [2] deals with dopamine transporter (DAT) (Rattus norvegicus (Rat), UniProt P23977). The assay can be described thus: Competition radioligand binding, [3H]WIN35428, rat brain membranes. The following applies: for IC50 / Ki: DA transporter; for Ki: Cheng-Prusoff.
Text: as §1, §2, §3

In another assay the target is SERT (Rattus norvegicus (Rat), UniProt P31652). The assay can be described thus: [3H]5-HT uptake inhibition in rat brain synaptosomes. The format is biochemical. The procedure: as §4, §5, §6, §7

Regarding `CN[C@@H](C)C(=O)c1ccc2c(c1)OCO2` [(S)-methylone], the “Estimated IC50” value at hKir2.1 is “N/C (N/C indicates observed mean inhibition was <25%)”. Also, the IC50 turned out to be 7.12 µM in assay [1], 0.634 µM against DAT, 8.34 µM in assay [2] and 0.395 µM against SERT. The inhibition constant Ki in assay [1] came out at 3.37 µM; in assay [2], 4.14 µM. The “Potency relative to racemic methylone” value in assay [1] (NET binding) is listed as “nearly two-fold less potent”.
For `CN[C@H](C)C(=O)c1ccc2c(c1)OCO2` [(R)-methylone], the “Estimated IC50” value at hKir2.1 is on record as “N/C (N/C indicates observed mean inhibition was <25%)”. Moreover, the IC50 turned out to be 4.67 µM in assay [1], 3.44 µM at DAT, 24.7 µM in assay [2] and 7.62 µM at SERT. For the same compound, the Ki in assay [1] was found to be 2.19 µM; in assay [2] it was 12.3 µM. Also, the “Potency relative to racemic methylone” value in assay [2] (DAT binding) was “approximately three-fold less potent”.
